According to the NIST ThermoML archive (doi:10.1016/j.jct.2015.11.023):

Tests used:
[1] = refractive index (Na D-line) (dimensionless); wn = mass fraction of the nth substance listed; details: 100 kPa, Liquid, Standard Abbe refractometry
[2] = wn = mass fraction of the nth substance listed; details: for surface tension liquid-gas: Maximal bubble pressure; for mass density: 100 kPa, Liquid, Vibrating tube method

CCCC[n+]1ccccc1.N#C[N-]C#N [1-butylpyridinium dicyanamide] + O
Details	mass density [kg/m3]	refractive index	surface tension liquid-gas [mN/m]
[1], 303.15 K, w2 = 0.00176	–	1.5323	–
[1], 303.15 K, w2 = 0.00319	–	1.5321	–
[1], 303.15 K, w2 = 0.00477	–	1.5319	–
[1], 303.15 K, w2 = 0.00627	–	1.5317	–
[1], 303.15 K, w2 = 0.0078	–	1.5315	–
[1], 308.15 K, w2 = 0.00176	–	1.5306	–
[1], 308.15 K, w2 = 0.00319	–	1.5303	–
[1], 308.15 K, w2 = 0.00477	–	1.5301	–
[1], 308.15 K, w2 = 0.00627	–	1.5298	–
[1], 308.15 K, w2 = 0.0078	–	1.5296	–
[1], 313.15 K, w2 = 0.00176	–	1.5283	–
[1], 313.15 K, w2 = 0.00319	–	1.5281	–
[1], 313.15 K, w2 = 0.00477	–	1.5279	–
[1], 313.15 K, w2 = 0.00627	–	1.5277	–
[1], 313.15 K, w2 = 0.0078	–	1.5275	–
[1], 318.15 K, w2 = 0.00176	–	1.5267	–
[1], 318.15 K, w2 = 0.00319	–	1.5265	–
[1], 318.15 K, w2 = 0.00477	–	1.5262	–
[1], 318.15 K, w2 = 0.00627	–	1.526	–
[1], 318.15 K, w2 = 0.0078	–	1.5258	–
[1], 323.15 K, w2 = 0.00176	–	1.525	–
[1], 323.15 K, w2 = 0.00319	–	1.5248	–
[1], 323.15 K, w2 = 0.00477	–	1.5245	–
[1], 323.15 K, w2 = 0.00627	–	1.5243	–
[1], 323.15 K, w2 = 0.0078	–	1.5241	–
[1], 328.15 K, w2 = 0.00176	–	1.5234	–
[1], 328.15 K, w2 = 0.00319	–	1.5232	–
[1], 328.15 K, w2 = 0.00477	–	1.523	–
[1], 328.15 K, w2 = 0.00627	–	1.5227	–
[1], 328.15 K, w2 = 0.0078	–	1.5225	–
[1], 333.15 K, w2 = 0.00176	–	1.5214	–
[1], 333.15 K, w2 = 0.00319	–	1.5212	–
[1], 333.15 K, w2 = 0.00477	–	1.5209	–
[1], 333.15 K, w2 = 0.00627	–	1.5207	–
[1], 333.15 K, w2 = 0.0078	–	1.5204	–
[1], 338.15 K, w2 = 0.00176	–	1.5199	–
[1], 338.15 K, w2 = 0.00319	–	1.5197	–
[1], 338.15 K, w2 = 0.00477	–	1.5194	–
[1], 338.15 K, w2 = 0.00627	–	1.5192	–
[1], 338.15 K, w2 = 0.0078	–	1.5189	–
[2], 303.15 K, w2 = 0.00123	1065.65	–	–
[2], 303.15 K, w2 = 0.00176	–	–	55.8
[2], 303.15 K, w2 = 0.00269	1065.52	–	–
[2], 303.15 K, w2 = 0.0033	–	–	56.2
[2], 303.15 K, w2 = 0.00417	1065.37	–	–
[2], 303.15 K, w2 = 0.00478	–	–	56.5
[2], 303.15 K, w2 = 0.00567	1065.24	–	–
[2], 303.15 K, w2 = 0.00628	–	–	56.8
[2], 303.15 K, w2 = 0.00714	1065.12	–	–
[2], 303.15 K, w2 = 0.0078	–	–	57.1
[2], 308.15 K, w2 = 0.00123	1062.58	–	–
[2], 308.15 K, w2 = 0.00176	–	–	55.5
[2], 308.15 K, w2 = 0.00269	1062.45	–	–
[2], 308.15 K, w2 = 0.0033	–	–	55.9
[2], 308.15 K, w2 = 0.00417	1062.32	–	–
[2], 308.15 K, w2 = 0.00478	–	–	56.2
[2], 308.15 K, w2 = 0.00567	1062.16	–	–
[2], 308.15 K, w2 = 0.00628	–	–	56.5
[2], 308.15 K, w2 = 0.00714	1062.04	–	–
[2], 308.15 K, w2 = 0.0078	–	–	56.8
[2], 313.15 K, w2 = 0.00123	1059.54	–	–
[2], 313.15 K, w2 = 0.00176	–	–	55.2
[2], 313.15 K, w2 = 0.00269	1059.41	–	–
[2], 313.15 K, w2 = 0.0033	–	–	55.6
[2], 313.15 K, w2 = 0.00417	1059.23	–	–
[2], 313.15 K, w2 = 0.00478	–	–	55.9
[2], 313.15 K, w2 = 0.00567	1059.11	–	–
[2], 313.15 K, w2 = 0.00628	–	–	56.2
[2], 313.15 K, w2 = 0.00714	1058.97	–	–
[2], 313.15 K, w2 = 0.0078	–	–	56.5
[2], 318.15 K, w2 = 0.00123	1056.51	–	–
[2], 318.15 K, w2 = 0.00176	–	–	54.9
[2], 318.15 K, w2 = 0.00269	1056.38	–	–
[2], 318.15 K, w2 = 0.0033	–	–	55.2
[2], 318.15 K, w2 = 0.00417	1056.24	–	–
[2], 318.15 K, w2 = 0.00478	–	–	55.5
[2], 318.15 K, w2 = 0.00567	1056.07	–	–
[2], 318.15 K, w2 = 0.00628	–	–	55.8
[2], 318.15 K, w2 = 0.00714	1055.94	–	–
[2], 318.15 K, w2 = 0.0078	–	–	56.2
[2], 323.15 K, w2 = 0.00123	1053.5	–	–
[2], 323.15 K, w2 = 0.00176	–	–	54.6
[2], 323.15 K, w2 = 0.00269	1053.36	–	–
[2], 323.15 K, w2 = 0.0033	–	–	54.9
[2], 323.15 K, w2 = 0.00417	1053.23	–	–
[2], 323.15 K, w2 = 0.00478	–	–	55.2
[2], 323.15 K, w2 = 0.00567	1053.04	–	–
[2], 323.15 K, w2 = 0.00628	–	–	55.5
[2], 323.15 K, w2 = 0.00714	1052.91	–	–
[2], 323.15 K, w2 = 0.0078	–	–	55.8
[2], 328.15 K, w2 = 0.00123	1050.5	–	–
[2], 328.15 K, w2 = 0.00176	–	–	54.3
[2], 328.15 K, w2 = 0.00269	1050.36	–	–
[2], 328.15 K, w2 = 0.0033	–	–	54.6
[2], 328.15 K, w2 = 0.00417	1050.22	–	–
[2], 328.15 K, w2 = 0.00478	–	–	54.9
[2], 328.15 K, w2 = 0.00567	1050.05	–	–
[2], 328.15 K, w2 = 0.00628	–	–	55.2
[2], 328.15 K, w2 = 0.00714	1049.92	–	–
[2], 328.15 K, w2 = 0.0078	–	–	55.5
[2], 333.15 K, w2 = 0.00123	1047.53	–	–
[2], 333.15 K, w2 = 0.00176	–	–	54
[2], 333.15 K, w2 = 0.00269	1047.4	–	–
[2], 333.15 K, w2 = 0.0033	–	–	54.3
[2], 333.15 K, w2 = 0.00417	1047.21	–	–
[2], 333.15 K, w2 = 0.00478	–	–	54.6
[2], 333.15 K, w2 = 0.00567	1047.07	–	–
[2], 333.15 K, w2 = 0.00628	–	–	54.9
[2], 333.15 K, w2 = 0.00714	1046.94	–	–
[2], 333.15 K, w2 = 0.0078	–	–	55.2
[2], 338.15 K, w2 = 0.00123	1044.55	–	–
[2], 338.15 K, w2 = 0.00176	–	–	53.7
[2], 338.15 K, w2 = 0.00269	1044.42	–	–
[2], 338.15 K, w2 = 0.0033	–	–	54
[2], 338.15 K, w2 = 0.00417	1044.27	–	–
[2], 338.15 K, w2 = 0.00478	–	–	54.3
[2], 338.15 K, w2 = 0.00567	1044.09	–	–
[2], 338.15 K, w2 = 0.00628	–	–	54.5
[2], 338.15 K, w2 = 0.00714	1043.94	–	–
[2], 338.15 K, w2 = 0.0078	–	–	54.8
